Laboratory results from patent publication US20240138411A1, “METHOD OF […] OF SUGARCANE” (CORTEVA AGRISCIENCE LLC, priority 2021, published 2024).

System: sugarcane
Test: Sugarcane flowering inhibition field trials, floral induction rated on UFSCar scale
Assay type: in vivo
Method: In order to explore the activity of florpyrauxifen as flowering inhibitor in sugarcane, field studies were carried out. Florpyrauxifen-benzyl was tested at rates from 2 to 20 grams active ingredient per hectare (g ai/ha) and compared to Ethrel® 720 (Bayer), the standard treatment. The flowering inhibition effect was assessed by checking the floral induction in sugarcane through the percentage scale recommended by UFSCar (Federal University of Sao Carlos, Sao Paulo, Brazil).
Four trials were carried out in sugarcane where florpyrauxifen-benzyl (Rinskor®), applied at a rate of 2 to 20 g ai/ha, was compared to ethephon (Ethrel® 720) applied at a rate of 475 g ai/ha. Control plots of untreated sugarcane were also evaluated. Rinskor® and Ethrel® 720 were diluted in water and a single application for each study (backpack sprayer) was performed delivering 50 L of spray solution per ha at the reproductive stage of sugarcane and at a maximum 150 days before harvest. The activity of florpyrauxifen-benzyl as a flowering inhibitor was measured via assessments (Scale of flowering inhibition—see chart 1) performed at 0, 14, 30, 45, 60, 75, 90, 120, 150 days after application, or up to harvest time. The assessments were measured in sugarcane stems, rating the flowering induction according to the UFSCar scale shown below. Significance of treatment effect was evaluated with F-approximate test (α=0.1) and least square means from different treatments were compared with Tukey's test.

For `COc1c(Cl)ccc(-c2nc(C(=O)OCc3ccccc3)c(Cl)c(N)c2F)c1F` [Rinskor, florpyrauxifen-benzyl], the “Frequency 1/1 (0%)” value (Table 2, 120 DAA, 5 g ai/ha) was 0.0%, the “Frequency 2/1 (15%)” value (Table 2, 120 DAA, 5 g ai/ha) was 0.0% and the “Frequency 3/1 (30%)” value (Table 2, 120 DAA, 5 g ai/ha) was 0.0%. The “Frequency 4/1 (50%)” value (Table 2, 120 DAA, 5 g ai/ha) was 0.0%, the “Frequency 4/2 (80%)” value (Table 2, 120 DAA, 5 g ai/ha) was 7.5% and the “Frequency 4/3 (90%)” value (Table 2, 120 DAA, 5 g ai/ha) was 20.0%. For the same molecule, the “Frequency 4/4 (100%)” value (Table 2, 120 DAA, 5 g ai/ha) was 72.5%, the “% Referring to Scale” value (Table 2, 120 DAA, 7 g ai/ha) was 97.0% and the “Frequency 1/1 (0%)” value (Table 2, 120 DAA, 7 g ai/ha) was 0.0%. The “Frequency 2/1 (15%)” value (Table 2, 120 DAA, 7 g ai/ha) was 0.0%, the “Frequency 3/1 (30%)” value (Table 2, 120 DAA, 7 g ai/ha) was 0.0% and the “Frequency 4/1 (50%)” value (Table 2, 120 DAA, 7 g ai/ha) was 0.0%. For the same molecule, the “Frequency 4/2 (80%)” value (Table 2, 120 DAA, 7 g ai/ha) was 5.0%, the “Frequency 4/3 (90%)” value (Table 2, 120 DAA, 7 g ai/ha) was 20.0% and the “Frequency 4/4 (100%)” value (Table 2, 120 DAA, 7 g ai/ha) was 75.0%. For the same molecule, the “% Referring to Scale” value (Table 2, 120 DAA, 10 g ai/ha) was 96.8%, the “Frequency 1/1 (0%)” value (Table 2, 120 DAA, 10 g ai/ha) was 0.0% and the “Frequency 2/1 (15%)” value (Table 2, 120 DAA, 10 g ai/ha) was 0.0%. The “Frequency 3/1 (30%)” value (Table 2, 120 DAA, 10 g ai/ha) was 0.0%, the “Frequency 4/1 (50%)” value (Table 2, 120 DAA, 10 g ai/ha) was 0.0% and the “Frequency 4/2 (80%)” value (Table 2, 120 DAA, 10 g ai/ha) was 10.0%. For the same molecule, the “Frequency 4/3 (90%)” value (Table 2, 120 DAA, 10 g ai/ha) was 12.5%, the “Frequency 4/4 (100%)” value (Table 2, 120 DAA, 10 g ai/ha) was 77.5% and the “% Referring to Scale” value (Table 2, 120 DAA, 15 g ai/ha) was 98.5%. The “Frequency 1/1 (0%)” value (Table 2, 120 DAA, 15 g ai/ha) was 0.0%, the “Frequency 2/1 (15%)” value (Table 2, 120 DAA, 15 g ai/ha) was 0.0% and the “Frequency 3/1 (30%)” value (Table 2, 120 DAA, 15 g ai/ha) was 0.0%. The “Frequency 4/1 (50%)” value (Table 2, 120 DAA, 15 g ai/ha) was 0.0%, the “Frequency 4/2 (80%)” value (Table 2, 120 DAA, 15 g ai/ha) was 0.0% and the “Frequency 4/3 (90%)” value (Table 2, 120 DAA, 15 g ai/ha) was 15.0%. For the same molecule, the “Frequency 4/4 (100%)” value (Table 2, 120 DAA, 15 g ai/ha) was 85.0%, the “% Referring to Scale” value (Table 2, 120 DAA, 20 g ai/ha) was 97.5% and the “Frequency 1/1 (0%)” value (Table 2, 120 DAA, 20 g ai/ha) was 0.0%. The “Frequency 2/1 (15%)” value (Table 2, 120 DAA, 20 g ai/ha) was 0.0%, the “Frequency 3/1 (30%)” value (Table 2, 120 DAA, 20 g ai/ha) was 0.0% and the “Frequency 4/1 (50%)” value (Table 2, 120 DAA, 20 g ai/ha) was 0.0%. For the same molecule, the “Frequency 4/2 (80%)” value (Table 2, 120 DAA, 20 g ai/ha) was 7.5%, the “Frequency 4/3 (90%)” value (Table 2, 120 DAA, 20 g ai/ha) was 10.0% and the “Frequency 4/4 (100%)” value (Table 2, 120 DAA, 20 g ai/ha) was 82.5%. For the same molecule, the “% Referring to Scale” value (Table 3, 90 DAA, 2 g ai/ha) was 0.0%, the “Frequency 1/1 (0%)” value (Table 3, 90 DAA, 2 g ai/ha) was 100.0% and the “Frequency 2/1 (15%)” value (Table 3, 90 DAA, 2 g ai/ha) was 0.0%. The “Frequency 3/1 (30%)” value (Table 3, 90 DAA, 2 g ai/ha) was 0.0%, the “Frequency 4/1 (50%)” value (Table 3, 90 DAA, 2 g ai/ha) was 0.0% and the “Frequency 4/2 (80%)” value (Table 3, 90 DAA, 2 g ai/ha) was 0.0%. For the same molecule, the “Frequency 4/3 (90%)” value (Table 3, 90 DAA, 2 g ai/ha) was 0.0%, the “Frequency 4/4 (100%)” value (Table 3, 90 DAA, 2 g ai/ha) was 0.0% and the “% Referring to Scale” value (Table 3, 90 DAA, 5 g ai/ha) was 0.0%. For the same molecule, the “Frequency 1/1 (0%)” value (Table 3, 90 DAA, 5 g ai/ha) was 100.0%, the “Frequency 2/1 (15%)” value (Table 3, 90 DAA, 5 g ai/ha) was 0.0% and the “Frequency 3/1 (30%)” value (Table 3, 90 DAA, 5 g ai/ha) was 0.0%. For the same molecule, the “Frequency 4/1 (50%)” value (Table 3, 90 DAA, 5 g ai/ha) was 0.0%, the “Frequency 4/2 (80%)” value (Table 3, 90 DAA, 5 g ai/ha) was 0.0% and the “Frequency 4/3 (90%)” value (Table 3, 90 DAA, 5 g ai/ha) was 0.0%. The “Frequency 4/4 (100%)” value (Table 3, 90 DAA, 5 g ai/ha) was 0.0%, the “% Referring to Scale” value (Table 3, 90 DAA, 7 g ai/ha) was 0.0% and the “Frequency 1/1 (0%)” value (Table 3, 90 DAA, 7 g ai/ha) was 100.0%. For the same molecule, the “Frequency 2/1 (15%)” value (Table 3, 90 DAA, 7 g ai/ha) was 0.0%, the “Frequency 3/1 (30%)” value (Table 3, 90 DAA, 7 g ai/ha) was 0.0% and the “Frequency 4/1 (50%)” value (Table 3, 90 DAA, 7 g ai/ha) was 0.0%. For the same molecule, the “Frequency 4/2 (80%)” value (Table 3, 90 DAA, 7 g ai/ha) was 0.0%, the “Frequency 4/3 (90%)” value (Table 3, 90 DAA, 7 g ai/ha) was 0.0% and the “Frequency 4/4 (100%)” value (Table 3, 90 DAA, 7 g ai/ha) was 0.0%. For the same molecule, the “% Referring to Scale” value (Table 3, 90 DAA, 10 g ai/ha) was 0.4%, the “Frequency 1/1 (0%)” value (Table 3, 90 DAA, 10 g ai/ha) was 97.5% and the “Frequency 2/1 (15%)” value (Table 3, 90 DAA, 10 g ai/ha) was 2.5%. For the same molecule, the “Frequency 3/1 (30%)” value (Table 3, 90 DAA, 10 g ai/ha) was 0.0%, the “Frequency 4/1 (50%)” value (Table 3, 90 DAA, 10 g ai/ha) was 0.0% and the “Frequency 4/2 (80%)” value (Table 3, 90 DAA, 10 g ai/ha) was 0.0%. The “Frequency 4/3 (90%)” value (Table 3, 90 DAA, 10 g ai/ha) was 0.0%, the “Frequency 4/4 (100%)” value (Table 3, 90 DAA, 10 g ai/ha) was 0.0% and the “% Referring to Scale” value (Table 3, 90 DAA, 15 g ai/ha) was 0.0%. The “Frequency 1/1 (0%)” value (Table 3, 90 DAA, 15 g ai/ha) was 100.0%, the “Frequency 2/1 (15%)” value (Table 3, 90 DAA, 15 g ai/ha) was 0.0% and the “Frequency 3/1 (30%)” value (Table 3, 90 DAA, 15 g ai/ha) was 0.0%. For the same molecule, the “Frequency 4/1 (50%)” value (Table 3, 90 DAA, 15 g ai/ha) was 0.0%, the “Frequency 4/2 (80%)” value (Table 3, 90 DAA, 15 g ai/ha) was 0.0% and the “Frequency 4/3 (90%)” value (Table 3, 90 DAA, 15 g ai/ha) was 0.0%. The “Frequency 4/4 (100%)” value (Table 3, 90 DAA, 15 g ai/ha) was 0.0%, the “% Referring to Scale” value (Table 3, 90 DAA, 20 g ai/ha) was 0.0% and the “Frequency 1/1 (0%)” value (Table 3, 90 DAA, 20 g ai/ha) was 100.0%. For the same molecule, the “Frequency 2/1 (15%)” value (Table 3, 90 DAA, 20 g ai/ha) was 0.0%, the “Frequency 3/1 (30%)” value (Table 3, 90 DAA, 20 g ai/ha) was 0.0% and the “Frequency 4/1 (50%)” value (Table 3, 90 DAA, 20 g ai/ha) was 0.0%. The “Frequency 4/2 (80%)” value (Table 3, 90 DAA, 20 g ai/ha) was 0.0%, the “Frequency 4/3 (90%)” value (Table 3, 90 DAA, 20 g ai/ha) was 0.0% and the “Frequency 4/4 (100%)” value (Table 3, 90 DAA, 20 g ai/ha) was 0.0%. The “% Referring to Scale” value (Table 3, 120 DAA, 2 g ai/ha) was 5.6%, the “Frequency 1/1 (0%)” value (Table 3, 120 DAA, 2 g ai/ha) was 62.5% and the “Frequency 2/1 (15%)” value (Table 3, 120 DAA, 2 g ai/ha) was 37.5%. For the same molecule, the “Frequency 3/1 (30%)” value (Table 3, 120 DAA, 2 g ai/ha) was 0.0%, the “Frequency 4/1 (50%)” value (Table 3, 120 DAA, 2 g ai/ha) was 0.0% and the “Frequency 4/2 (80%)” value (Table 3, 120 DAA, 2 g ai/ha) was 0.0%. The “Frequency 4/3 (90%)” value (Table 3, 120 DAA, 2 g ai/ha) was 0.0%, the “Frequency 4/4 (100%)” value (Table 3, 120 DAA, 2 g ai/ha) was 0.0% and the “% Referring to Scale” value (Table 3, 120 DAA, 5 g ai/ha) was 6.9%. For the same molecule, the “Frequency 1/1 (0%)” value (Table 3, 120 DAA, 5 g ai/ha) was 62.5%, the “Frequency 2/1 (15%)” value (Table 3, 120 DAA, 5 g ai/ha) was 32.5% and the “Frequency 3/1 (30%)” value (Table 3, 120 DAA, 5 g ai/ha) was 2.5%. The “Frequency 4/1 (50%)” value (Table 3, 120 DAA, 5 g ai/ha) was 2.5%, the “Frequency 4/2 (80%)” value (Table 3, 120 DAA, 5 g ai/ha) was 0.0% and the “Frequency 4/3 (90%)” value (Table 3, 120 DAA, 5 g ai/ha) was 0.0%. For the same molecule, the “Frequency 4/4 (100%)” value (Table 3, 120 DAA, 5 g ai/ha) was 0.0%, the “% Referring to Scale” value (Table 3, 120 DAA, 7 g ai/ha) was 3.0% and the “Frequency 1/1 (0%)” value (Table 3, 120 DAA, 7 g ai/ha) was 80.0%. For the same molecule, the “Frequency 2/1 (15%)” value (Table 3, 120 DAA, 7 g ai/ha) was 20.0%, the “Frequency 3/1 (30%)” value (Table 3, 120 DAA, 7 g ai/ha) was 0.0% and the “Frequency 4/1 (50%)” value (Table 3, 120 DAA, 7 g ai/ha) was 0.0%. For the same molecule, the “Frequency 4/2 (80%)” value (Table 3, 120 DAA, 7 g ai/ha) was 0.0%, the “Frequency 4/3 (90%)” value (Table 3, 120 DAA, 7 g ai/ha) was 0.0% and the “Frequency 4/4 (100%)” value (Table 3, 120 DAA, 7 g ai/ha) was 0.0%. For the same molecule, the “% Referring to Scale” value (Table 3, 120 DAA, 10 g ai/ha) was 4.1%.
